From patent publication US12338256B2, “Aza-tetracyclic oxazepine compounds and uses thereof” (Genentech, Inc., priority 2022, dated 2025)
Read-outs that look alike come from different tables or passages of the source.

Key:
[1] = tested on: HPAC (homozygous mutant KRAS G12D human pancreatic cell line); assay: KRAS 3D-Cell Proliferation Assay, HPAC (Example 503); assay type: cell-based; conditions: HPAC 3D culture, 7 days, CellTiter-Glo 3D, read-out: Prolif HPAC 3D ATP IC50
Method: (§1) Example 503: KRAS 3D-Cell Proliferation Assays. Cellular potencies of compounds are assessed by evaluating inhibition of proliferation in 3D cultures of homozygous mutant KRAS G12D human pancreatic cell lines (AsPC-1 and HPAC) as compared to a KRAS wild type human lung adenocarcinoma cell line (PC-9 and/or H1975). Cells are seeded into 384-well black round-bottom, ultra-low attachment assay plates in 50 uL cell growth medium (RPMI-1640 with 10% fetal bovine serum and 2 mM L-glutamine). After overnight incubation at 37° C. and 5% CO2, compounds solubilized in DMSO are added as dilution series to the wells in a total volume of 150 nL (0.3% DMSO final). The cells are incubated for 7 days at 37° C. and 5% CO2. Cell proliferation is quantitated by addition of 40 uL/well of CellTiter-GloÒ 3D (Promega), and the well contents are mixed 20× at high speed using liquid handling automation workstation (Bravo with 384-well head) and centrifuged at 1500 rpm for 2 minutes to eliminate bubbles. This reagent in combination with mechanical disruption releases the cellular ATP to promote activity in a luciferase-based enzyme/substrate chemiluminescent detection system. After a 30-minute incubation under ambient conditions with shaking and an additional 10 minutes without shaking, the luminescence is read on a plate reader (e.g., EnVision [PerkinElmer]). The results are normalized to percent inhibition based on the following control samples: DMSO (0% inhibition) and 1 μM staurosporine (100% inhibition). The normalized luminescence results are plotted against compound concentration, and the data are fit to a 4-parameter Hill equation to determine the IC50 values.

[2] = tested on: H1975 (KRAS wild type human lung adenocarcinoma cell line); assay: KRAS 3D-Cell Proliferation Assay, H1975 (Example 503); assay type: cell-based; conditions: H1975 3D culture, 7 days, CellTiter-Glo 3D, read-out: Prolif H1975 3D ATP IC50
Method: as §1

Row | SMILES | IC50 ([1]; Homo sapiens, HPAC, 168 h) | IC50 ([2]; Homo sapiens, NCI-H1975, 168 h) | IC50 [2] | IC50 [1]
1 | Cc1c(F)c(N)cc(-c2nc3c4c(nc(OCC5CC6COCCN65)nc4c2F)N2C[C@H]4CC[C@H](N4)[C@H]2[C@H](C)O3)c1C(F)(F)F (mixture of isomers) [159 (mixture), 5-((5S,5aS,6S,9R)-12-((4-Oxa-1-azabicyclo[4.2.0]octan-8-yl)methoxy)-1-fluoro-5-methyl-5a,6,7,8,9,10-hexahydro-5H-4-oxa-3,10a,11,13,14-pentaaza-6,9-methanonaphtho[1,8-ab]heptalen-2-yl)-2-fluoro-3-methyl-4-(trifluoromethyl)aniline] | 17.9 nM | 3740 nM |  | 
2 | Cc1c(F)c(N)cc(-c2nc3c4c(nc(OCC5CCC6CN(C)C(=O)CN56)nc4c2F)N2C[C@H]4CC[C@H](N4)[C@H]2[C@H](C)O3)c1C(F)(F)F (mixture of isomers) [Compound 124, 6-((((5S,5aS,6S,9R)-2-(5-Amino-4-fluoro-3-methyl-2-(trifluoromethyl)phenyl)-1-fluoro-5-methyl-5a,6,7,8,9,10-hexahydro-5H-4-oxa-3,10a,11,13,14-pentaaza-6,9-methanonaphtho[1,8-ab]heptalen-12-yl)oxy)methyl)-2-methylhexahydropyrrolo[1,2-a]pyrazin-3(4H)-one] | 293 nM | 12200 nM |  | 
3 | Cc1c(F)c(N)cc(-c2nc3c4c(nc(OCC56CCN5CC(F)(F)C6)nc4c2F)N2C[C@H]4CC[C@H](N4)[C@H]2[C@H](C(F)(F)F)O3)c1C(F)(F)F (mixture of isomers) [Compound 244, 5-((5R,5aS,6S,9R)-12-((3,3-Difluoro-1-azabicyclo[3.2.0]heptan-5-yl)methoxy)-1-fluoro-5-(trifluoromethyl)-5a,6,7,8,9,10-hexahydro-5H-4-oxa-3,10a,11,13,14-pentaaza-6,9-methanonaphtho[1,8-ab]heptalene-2-yl)-2-fluoro-3-methyl-4-(trifluoromethyl)aniline] | 6.14 nM | 258 nM |  | 
4 | Cc1nc(N)cc(-c2nc3c4c(nc(OCC5(CN6CC7CC(F)(F)C7C6)CC5)nc4c2F)N2C[C@H]4CC[C@H](N4)[C@H]2[C@H](C)O3)c1C(F)(F)F (mixture of isomers) [Compound 264, 4-((5S,5aS,6S,9R)-12-((1-((6,6-difluoro-3-azabicyclo[3.2.0]heptan-3-yl)methyl)cyclopropyl)methoxy)-1-fluoro-5-methyl-5a,6,7,8,9,10-hexahydro-5H-4-oxa-3,10a,11,13,14-pentaaza-6,9-methanonaphtho[1,8-ab]heptalene-2-yl)-6-methyl-5-(trifluoromethyl)pyridin-2-amine] | 5.56 nM | 11000 nM |  | 
5 | Cc1c(F)c(N)cc(-c2nc3c4c(nc(OCC5CCC6CC(F)(F)CCN56)nc4c2F)N2CC4CCC(N4)C2C(C)O3)c1C(F)(F)F (single isomer, unassigned) [119 (isomer 1)] | 76.7 nM | 3150 nM |  | 
6 | Cc1c(F)c(N)cc(-c2nc3c4c(nc(OC[C@@H]5CCC6CC(F)(F)CCN65)nc4c2F)N2C[C@H]4CC[C@H](N4)[C@H]2[C@H](C)O3)c1C(F)(F)F (single isomer, unassigned) [119 (isomer 2)] | 7.95 nM | 1700 nM |  | 
7 | Cc1c(F)c(N)cc(-c2nc3c4c(nc(OCC5COCC6CCCN65)nc4c2F)N2CC4CCC(N4)C2C(C)O3)c1C(F)(F)F (single isomer, unassigned) [121 (isomer 1)] | 12.5 nM |  |  | 
8 | Cc1c(F)c(N)cc(-c2nc3c4c(nc(OC[C@@]5(CCF)CCCN5C)nc4c2F)N2C[C@H]4CC[C@H](N4)[C@H]2[C@H](C)O3)c1C(F)(F)F (single isomer, unassigned) [127 (isomer 1)] | 50.1 nM | 6080 nM |  | 
9 | Cc1c(F)c(N)cc(-c2nc3c4c(nc(OCC5(CCF)CCCN5C)nc4c2F)N2CC4CCC(N4)C2C(C)O3)c1C(F)(F)F (single isomer, unassigned) [127 (isomer 2)] | 57.5 nM | 7970 nM |  | 
10 | Cc1c(F)c(N)cc(-c2nc3c4c(nc(OCC5CCC6CN(C)C(=O)CN56)nc4c2F)N2CC4CCC(N4)C2C(C)O3)c1C(F)(F)F (single isomer, unassigned) [131 (isomer 4)] |  | 6810 nM |  | 
11 | Cc1c(F)c(N)cc(-c2nc3c4c(nc(OC[C@@H]5CC[C@@H]6C[C@@H](C(=O)N(C)C)CCN65)nc4c2F)N2C[C@H]4CC[C@H](N4)[C@H]2[C@H](C)O3)c1C(F)(F)F (single isomer, unassigned) [133 (isomer 1)] | 26.7 nM | 2630 nM |  | 
12 | Cc1c(F)c(N)cc(-c2nc3c4c(nc(OC[C@@H]5CC[C@@H]6CC(C(=O)N(C)C)CCN65)nc4c2F)N2C[C@H]4CC[C@H](N4)[C@H]2[C@H](C)O3)c1C(F)(F)F (single isomer, unassigned) [133 (isomer 3)] | 36.3 nM | 659 nM |  | 
13 | Cc1c(F)c(N)cc(-c2nc3c4c(nc(OCC5CCC6CC(C(=O)N(C)C)CCN56)nc4c2F)N2CC4CCC(N4)C2C(C)O3)c1C(F)(F)F (single isomer, unassigned) [133 (isomer 4)] | 14.1 nM | 2080 nM |  | 
14 | Cc1c(F)c(N)cc(-c2nc3c4c(nc(OC[C@]56COC[C@H]5CCN6C)nc4c2F)N2C[C@H]4CC[C@H](N4)[C@H]2[C@H](C)O3)c1C(F)(F)F (single isomer, unassigned) [134 (isomer 1)] | 8.59 nM | 2550 nM |  | 
15 | Cc1c(F)c(N)cc(-c2nc3c4c(nc(OCC56COCC5CCN6C)nc4c2F)N2CC4CCC(N4)C2C(C)O3)c1C(F)(F)F (single isomer, unassigned) [134 (isomer 2)] | 7.45 nM | 1940 nM |  | 
16 | Cc1c(F)c(N)cc(-c2nc3c4c(nc(OC[C@@]56CCCN5CCN(C)C6=O)nc4c2F)N2C[C@H]4CC[C@H](N4)[C@H]2[C@H](C)O3)c1C(F)(F)F (single isomer, unassigned) [137 (isomer 1)] | 127 nM | 20000 nM |  | 
17 | Cc1c(F)c(N)cc(-c2nc3c4c(nc(OCC56CCCN5CCN(C)C6=O)nc4c2F)N2C[C@H]4CC[C@H](N4)[C@H]2[C@H](C)O3)c1C(F)(F)F (single isomer, unassigned) [137 (isomer 2)] |  |  | 20000 nM | 
18 | Cc1c(F)c(N)cc(-c2nc3c4c(nc(OC[C@]56CCCN5C[C@H](F)[C@@H]6F)nc4c2F)N2C[C@H]4CC[C@H](N4)[C@H]2[C@H](C)O3)c1C(F)(F)F (single isomer, unassigned) [143 (isomer 1)] | 4.72 nM | 972 nM |  | 
19 | Cc1c(F)c(N)cc(-c2nc3c4c(nc(OCC56CCCN5CC(F)C6F)nc4c2F)N2CC4CCC(N4)C2C(C)O3)c1C(F)(F)F (single isomer, unassigned) [143 (isomer 3)] | 4.77 nM |  |  | 
20 | Cc1c(F)c(N)cc(-c2nc3c4c(nc(OC[C@@]5(CC(F)F)CCCN5C)nc4c2F)N2C[C@H]4CC[C@H](N4)[C@H]2[C@H](C)O3)c1C(F)(F)F (single isomer, unassigned) [150 (isomer 1)] | 13.7 nM | 3770 nM |  | 
21 | Cc1c(F)c(N)cc(-c2nc3c4c(nc(OCC5(CC(F)F)CCCN5C)nc4c2F)N2CC4CCC(N4)C2C(C)O3)c1C(F)(F)F (single isomer, unassigned) [150 (isomer 2)] | 23.9 nM | 2850 nM |  | 
22 | Cc1c(F)c(N)cc(-c2nc3c4c(nc(OC[C@@H]5CC[C@H]6C[C@@H](F)CN56)nc4c2F)N2C[C@H]4CC[C@H](N4)[C@H]2[C@H](C)O3)c1C(F)(F)F (single isomer, unassigned) [152 (isomer 1)] | 17.4 nM | 787 nM |  | 
23 | Cc1c(F)c(N)cc(-c2nc3c4c(nc(OCC5CCC6CC(F)CN56)nc4c2F)N2CC4CCC(N4)C2C(C)O3)c1C(F)(F)F (single isomer, unassigned) [152 (isomer 2)] | 299 nM | 6330 nM |  | 
24 | Cc1c(F)c(N)cc(-c2nc3c4c(nc(OCC5CC6COCCN65)nc4c2F)N2C[C@H]4CC[C@H](N4)[C@H]2[C@H](C)O3)c1C(F)(F)F (single isomer, unassigned) [159 (diast. 1)] | 36.9 nM |  |  | 
25 | Cc1c(F)c(N)cc(-c2nc3c4c(nc(OC[C@]5(CN6C[C@H]7C[C@@H]6CO7)CC5(F)F)nc4c2F)N2C[C@H]4CC[C@H](N4)[C@H]2[C@H](C)O3)c1C(F)(F)F (single isomer, unassigned) [166 a] |  |  |  | 1.44 nM
26 | C[C@@H]1Oc2nc(-c3cc(N)c(F)cc3[C@H](C)C(F)F)c(F)c3nc(OC[C@@]45CCCN4C[C@H](F)C5)nc(c23)N2C[C@H]3CC[C@H](N3)[C@@H]12 (single isomer, unassigned) [181 (isomer 1)] |  | 12300 nM |  | 
27 | Cc1c(F)c(N)cc(-c2nc3c4c(nc(OC[C@@]56CCCN5C[C@H](F)C6)nc4c2F)N2C[C@H]4CC[C@H](N4)C2C(C(F)F)O3)c1C(F)(F)F (single isomer, unassigned) [238 (isomer 2)] |  |  |  | 2000 nM
28 | Cc1nc(N)cc(-c2nc3c4c(nc(OCC5N(C)CC56CC6(F)F)nc4c2F)N2CC4CCC(N4)C2C(C(F)(F)F)O3)c1C(F)(F)F (single isomer, unassigned) [262 (isomer 2)] | 123 nM |  |  | 
